Test results taken from patent publication US10294202B2, “Pyrrolidinones as herbicides” (FMC Corporation, priority 2013, dated 2019).

Assays:
[1] = tested on: pigweed; experiment: Test C pre-/postemergence herbicide test; format: in vivo, Amaranthus retroflexus
How it was run: (§1)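 Greenhouse plants scored visually against untreated controls 13–15 days after treatment, 0 = no effect, 100 = complete control. Test chemicals in a non-phytotoxic solvent with surfactant were applied either to soil (loam/sand) at planting or to foliage of 1- to 4-leaf plants, 2–18 cm tall.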

[2] = tested on: velvetleaf; experiment: Test C pre-/postemergence herbicide test; format: in vivo, Abutilon theophrasti
How it was run: as §1

[3] = tested on: ducksalad; experiment: Test B flooded paddy test; format: in vivo, Heteranthera limosa; conditions: 250 g ai/ha, Flood; scale of 0 to 100 where 0 is no effect and 100 is complete control
How it was run: (§2)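 Visual ratings from 0, meaning no effect, up to 100, meaning complete control, were made by comparison with untreated controls 13 to 15 days after treatment. Test compounds went straight into floodwater standing 3 cm over the soil of pots holding 2-leaf seedlings.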

[4] = tested on: giant foxtail; experiment: Test A pre-/postemergence herbicide test; format: in vivo, Setaria faberii
How it was run: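 Visual 0–100 ratings (100 = complete control) made about 10 days after treatment, greenhouse-held plants compared with untreated controls. Treatments: postemergence sprays on one- to two-leaf plants (2–10 cm tall) and preemergence directed soil sprays after planting in loam–sand, chemicals formulated in non-phytotoxic solvent containing surfactant.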

[5] = tested on: oat, wild; experiment: Test C pre-/postemergence herbicide test; format: in vivo, Avena fatua
How it was run: as §1

[6] = tested on: barnyardgrass; experiment: Test B flooded paddy test; format: in vivo, Echinochloa crus-galli; conditions: 250 g ai/ha, Flood; scale of 0 to 100 where 0 is no effect and 100 is complete control
How it was run: as §2

[7] = tested on: ragweed; experiment: Test C pre-/postemergence herbicide test; format: in vivo, Ambrosia elatior
How it was run: as §1

[8] = tested on: sedge, umbrella; experiment: Test B flooded paddy test; format: in vivo, Cyperus difformis; conditions: 250 g ai/ha, Flood; scale of 0 to 100 where 0 is no effect and 100 is complete control
How it was run: as §2

[9] = tested on: nutsedge, yellow; experiment: Test C pre-/postemergence herbicide test; format: in vivo, Cyperus esculentus
How it was run: as §1

[10] = tested on: rice; experiment: Test B flooded paddy test; format: in vivo, Oryza sativa; conditions: 250 g ai/ha, Flood; scale of 0 to 100 where 0 is no effect and 100 is complete control
How it was run: as §2

[11] = tested on: blackgrass; experiment: Test C pre-/postemergence herbicide test; format: in vivo, Alopecurus myosuroides
How it was run: as §1

[12] = Preemergence, 62 g ai/ha, scale 0 to 100
[13] = Preemergence, 125 g ai/ha, scale 0 to 100 (0 no effect, 100 complete control)
[14] = Postemergence, 1000 g ai/ha, 0 to 100 scale (0 no effect, 100 complete control)
[15] = Preemergence, 1000 g ai/ha, visual rating on 0 to 100 scale (0 no effect, 100 complete control), approx. 10 days
[16] = Preemergence, 31 g ai/ha, scale 0 to 100 (0 no effect, 100 complete control)
[17] = Preemergence, 250 g ai/ha, scale 0 to 100 (0 no effect, 100 complete control)
[18] = Postemergence, 31 g ai/ha, scale 0 (no effect) to 100 (complete control)
[19] = Postemergence, 62 g ai/ha, scale 0 to 100 (0 no effect, 100 complete control)
[20] = Postemergence, 125 g ai/ha, scale 0 to 100 (0 no effect, 100 complete control)
[21] = Postemergence, 250 g ai/ha, scale 0 to 100 (0 no effect, 100 complete control)
[22] = Preemergence, 31 g ai/ha, scale 0 to 100, 0 is no effect and 100 is complete control
[23] = Postemergence, 125 g ai/ha, 0 to 100 scale, 0 no effect, 100 complete control
[24] = Postemergence, 500 g ai/ha, 0 to 100 scale (0 no effect, 100 complete control)
[25] = Preemergence, 125 g ai/ha, visual rating on 0 to 100 scale (0 no effect, 100 complete control)
[26] = preemergence, 500 g ai/ha, 0 to 100 scale

O=C1NCC(c2cc(F)c(F)c(F)c2)C1C(=O)Nc1ccccc1C(F)(F)F (racemic) [Compound 33]
Plant response rating, Pigweed [1, 12]: 0 | Plant response rating, Pigweed [1, 13]: 0 | Plant response rating, Velvetleaf [2, 12]: 10 | Plant response rating, Velvetleaf [2, 13]: 10 | Plant response rating, Ducksalad [3]: 100 | Plant response rating, Foxtail, Giant [4, 14]: 90 | Plant response rating, Foxtail, Giant [4, 15]: 90 | Plant response rating, Oat, Wild [5, 12]: 0 | Plant response rating, Oat, Wild [5, 13]: 20 | Plant response rating, Barnyardgrass [6]: 0 | Plant response rating, Ragweed [7, 12]: 0 | Plant response rating, Ragweed [7, 13]: 0 | Plant response rating, Sedge, Umbrella [8]: 0 | Plant response rating, Nutsedge, Yellow [9, 12]: 10 | Plant response rating, Rice [10]: 0 | Blackgrass plant response rating [11, 16]: 0 | Plant response rating, Blackgrass [11, 12]: 0 | Plant response rating, Blackgrass [11, 13]: 0 | Plant response rating, Blackgrass [11, 17]: 5

O=C1NCC(c2cc(F)c(F)c(F)c2)C1C(=O)Nc1ccccc1F (racemic) [Compound 34]
Plant response rating, Pigweed [1, 18]: 0 | Plant response rating, Pigweed [1, 19]: 0 | Plant response rating, Pigweed [1, 20]: 0 | Plant response rating, Pigweed [1, 21]: 10 | Plant response rating, Pigweed [1, 12]: 0 | Plant response rating, Pigweed [1, 13]: 0 | Plant response rating, Velvetleaf [2, 18]: 5 | Plant response rating, Velvetleaf [2, 19]: 5 | Plant response rating, Velvetleaf [2, 20]: 5 | Plant response rating, Velvetleaf [2, 21]: 5 | Plant response rating, Velvetleaf [2, 12]: 0 | Plant response rating, Velvetleaf [2, 13]: 0 | Plant response rating, Ducksalad [3]: 95 | Plant response rating, Foxtail, Giant [4, 14]: 90 | Plant response rating, Foxtail, Giant [4, 15]: 90 | Plant response rating, Oat, Wild [5, 18]: 0 | Plant response rating, Oat, Wild [5, 19]: 0 | Plant response rating, Oat, Wild [5, 20]: 0 | Plant response rating, Oat, Wild [5, 21]: 0 | Plant response rating, Oat, Wild [5, 12]: 0 | Plant response rating, Oat, Wild [5, 13]: 60 | Plant response rating, Barnyardgrass [6]: 0 | Plant response rating, Ragweed [7, 18]: 5 | Plant response rating, Ragweed [7, 19]: 5 | Plant response rating, Ragweed [7, 20]: 5 | Plant response rating, Ragweed [7, 21]: 5 | Plant response rating, Ragweed [7, 12]: 0 | Plant response rating, Ragweed [7, 13]: 0 | Plant response rating, Sedge, Umbrella [8]: 0 | Plant response rating, Nutsedge, Yellow [9, 18]: 5 | Plant response rating, Nutsedge, Yellow [9, 19]: 5 | Plant response rating, Nutsedge, Yellow [9, 20]: 10 | Plant response rating, Nutsedge, Yellow [9, 21]: 10 | Plant response rating, Nutsedge, Yellow [9, 12]: 0 | Plant response rating, Nutsedge, Yellow [9, 13]: 0 | Plant response rating, Rice [10]: 0 | Plant response rating, Blackgrass [11, 18]: 0 | Plant response rating, Blackgrass [11, 19]: 0 | Plant response rating, Blackgrass [11, 20]: 0 | Plant response rating, Blackgrass [11, 21]: 0 | Blackgrass plant response rating [11, 16]: 0 | Plant response rating, Blackgrass [11, 12]: 0 | Plant response rating, Blackgrass [11, 13]: 10 | Plant response rating, Blackgrass [11, 17]: 45

Cc1ccccc1NC(=O)C1C(=O)NCC1c1cc(F)c(F)c(F)c1 (racemic) [Compound 35]
Plant response rating, Pigweed [1, 12]: 0 | Plant response rating, Pigweed [1, 13]: 0 | Plant response rating, Velvetleaf [2, 12]: 20 | Plant response rating, Velvetleaf [2, 13]: 20 | Plant response rating, Ducksalad [3]: 80 | Plant response rating, Foxtail, Giant [4, 14]: 90 | Plant response rating, Foxtail, Giant [4, 15]: 90 | Plant response rating, Oat, Wild [5, 12]: 0 | Plant response rating, Oat, Wild [5, 13]: 0 | Plant response rating, Barnyardgrass [6]: 0 | Plant response rating, Ragweed [7, 12]: 0 | Plant response rating, Ragweed [7, 13]: 0 | Plant response rating, Sedge, Umbrella [8]: 0 | Plant response rating, Nutsedge, Yellow [9, 12]: 0 | Plant response rating, Nutsedge, Yellow [9, 13]: 0 | Plant response rating, Rice [10]: 0 | Blackgrass plant response rating [11, 16]: 0 | Plant response rating, Blackgrass [11, 12]: 0 | Plant response rating, Blackgrass [11, 13]: 5 | Plant response rating, Blackgrass [11, 17]: 50

O=C1NCC(c2ccccc2)C1C(=O)Nc1ccccc1F (racemic) [Compound 81]
Plant response rating, Pigweed [1, 18]: 0 | Plant response rating, Pigweed [1, 19]: 0 | Plant response rating, Pigweed [1, 20]: 0 | Plant response rating, Pigweed [1, 21]: 0 | Pigweed plant response rating [1, 22]: 0 | Plant response rating, Pigweed [1, 12]: 0 | Plant response rating, Pigweed [1, 13]: 0 | Plant response rating (scale of 0 to 100), Pigweed ([1]; Preemergence, 250 g ai/ha): 0 | Plant response rating, Velvetleaf [2, 18]: 0 | Plant response rating, Velvetleaf [2, 19]: 0 | Plant response rating, Velvetleaf [2, 20]: 0 | Plant response rating, Velvetleaf [2, 21]: 0 | Velvetleaf plant response rating [2, 22]: 0 | Plant response rating, Velvetleaf [2, 12]: 0 | Plant response rating, Velvetleaf [2, 13]: 0 | Plant response rating (scale of 0 to 100), Velvetleaf ([2]; Preemergence, 250 g ai/ha): 0 | Plant response rating, Ducksalad [3]: 70 | Plant response rating, Foxtail, Giant [4, 23]: 20 | Plant response rating, Foxtail, Giant [4, 24]: 70 | Foxtail, Giant plant response rating [4, 25]: 30 | Plant response rating, Foxtail, Giant [4, 26]: 90 | Plant response rating, Oat, Wild [5, 18]: 0 | Plant response rating, Oat, Wild [5, 19]: 0 | Plant response rating, Oat, Wild [5, 20]: 0 | Plant response rating, Oat, Wild [5, 21]: 0 | Oat, Wild plant response rating [5, 22]: 0 | Plant response rating, Oat, Wild [5, 12]: 0 | Plant response rating, Oat, Wild [5, 13]: 0 | Plant response rating (scale of 0 to 100), Oat, Wild ([5]; Preemergence, 250 g ai/ha): 0 | Plant response rating, Barnyardgrass [6]: 20 | Plant response rating, Ragweed [7, 18]: 0 | Plant response rating, Ragweed [7, 19]: 0 | Plant response rating, Ragweed [7, 20]: 0 | Plant response rating, Ragweed [7, 21]: 0 | Ragweed plant response rating [7, 22]: 0 | Plant response rating, Ragweed [7, 12]: 0 | Plant response rating, Ragweed [7, 13]: 0 | Plant response rating (scale of 0 to 100), Ragweed ([7]; Preemergence, 250 g ai/ha): 0 | Plant response rating, Sedge, Umbrella [8]: 0 | Plant response rating, Nutsedge, Yellow [9, 18]: 0 | Plant response rating, Nutsedge, Yellow [9, 19]: 0 | Plant response rating, Nutsedge, Yellow [9, 20]: 0 | Plant response rating, Nutsedge, Yellow [9, 21]: 0 | Nutsedge, Yellow plant response rating [9, 22]: 0 | Plant response rating, Nutsedge, Yellow [9, 12]: 0 | Plant response rating, Nutsedge, Yellow [9, 13]: 0 | Plant response rating (scale of 0 to 100), Nutsedge, Yellow ([9]; Preemergence, 250 g ai/ha): 0 | Plant response rating, Blackgrass [11, 18]: 0 | Plant response rating, Blackgrass [11, 19]: 0 | Plant response rating, Blackgrass [11, 20]: 0 | Plant response rating, Blackgrass [11, 21]: 0 | Blackgrass plant response rating [11, 22]: 0 | Plant response rating, Blackgrass [11, 12]: 0 | Plant response rating, Blackgrass [11, 13]: 0 | Plant response rating (scale of 0 to 100), Blackgrass ([11]; Preemergence, 250 g ai/ha): 0

O=C1NCC(c2ccc(Cl)c(F)c2)C1C(=O)Nc1ccccc1F (stereo not drawn) [Compound 53]
Plant response rating, Pigweed [1, 12]: 25 | Plant response rating, Pigweed [1, 13]: 25 | Plant response rating, Velvetleaf [2, 12]: 0 | Plant response rating, Velvetleaf [2, 13]: 0 | Plant response rating, Ducksalad [3]: 100 | Plant response rating, Foxtail, Giant [4, 23]: 30 | Plant response rating, Foxtail, Giant [4, 24]: 80 | Foxtail, Giant plant response rating [4, 25]: 90 | Plant response rating, Foxtail, Giant [4, 26]: 90 | Plant response rating, Oat, Wild [5, 12]: 0 | Plant response rating, Oat, Wild [5, 13]: 0 | Plant response rating, Barnyardgrass [6]: 0 | Plant response rating, Ragweed [7, 12]: 10 | Plant response rating, Ragweed [7, 13]: 10 | Plant response rating, Sedge, Umbrella [8]: 20 | Plant response rating, Nutsedge, Yellow [9, 12]: 20 | Plant response rating, Rice [10]: 0 | Blackgrass plant response rating [11, 16]: 0 | Plant response rating, Blackgrass [11, 12]: 0 | Plant response rating, Blackgrass [11, 13]: 0 | Plant response rating, Blackgrass [11, 17]: 0

O=C1NCC(c2ccc(F)c(Cl)c2)C1C(=O)Nc1cccc(F)c1F (stereo not drawn) [Compound 59]
Plant response rating, Pigweed [1, 12]: 35 | Plant response rating, Velvetleaf [2, 12]: 0 | Plant response rating, Velvetleaf [2, 13]: 0 | Plant response rating, Ducksalad [3]: 75 | Plant response rating, Foxtail, Giant [4, 23]: 80 | Plant response rating, Foxtail, Giant [4, 24]: 80 | Foxtail, Giant plant response rating [4, 25]: 80 | Plant response rating, Foxtail, Giant [4, 26]: 90 | Plant response rating, Oat, Wild [5, 12]: 0 | Plant response rating, Oat, Wild [5, 13]: 0 | Plant response rating, Barnyardgrass [6]: 40 | Plant response rating, Ragweed [7, 12]: 0 | Plant response rating, Ragweed [7, 13]: 0 | Plant response rating, Sedge, Umbrella [8]: 60 | Plant response rating, Nutsedge, Yellow [9, 12]: 0 | Plant response rating, Nutsedge, Yellow [9, 13]: 0 | Plant response rating, Rice [10]: 20 | Blackgrass plant response rating [11, 16]: 0 | Plant response rating, Blackgrass [11, 12]: 0 | Plant response rating, Blackgrass [11, 13]: 30 | Plant response rating, Blackgrass [11, 17]: 60
